Reference: the CheMixHub ionic liquid set

Assay: xn = mol fraction of the nth substance listed

CCCC[N+](CCCC)(CCCC)CCCC.N#C[S-] + CCCOCC(C)O
electrical conductivity [S/m], 101 kPa
Details	248.15 K	258.15 K	268.15 K	278.15 K	288.15 K	298.15 K	308.15 K	313.15 K
x1 = 0.01119	0.0011	0.00185	0.00285	0.00405	0.00541	–	0.00829	0.00901
x1 = 0.01571	0.00157	0.00271	0.00425	0.00618	0.00842	0.01082	0.01352	0.01485
x1 = 0.01893	0.0019	0.00331	0.00526	0.00773	0.01064	0.01386	0.01748	0.01934
x1 = 0.02277	0.00227	0.00401	0.00644	0.00956	0.01332	0.01758	0.02234	0.02493
x1 = 0.02903	0.00284	0.00511	0.00834	0.01257	0.01775	0.02385	0.03061	0.03428
x1 = 0.03808	0.00356	0.00652	0.01082	0.01658	0.02379	0.03253	0.04237	0.04779
x1 = 0.04326	0.0039	0.00723	0.01211	0.01864	0.02705	0.0372	0.04875	0.0548
x1 = 0.06196	0.00476	0.00908	0.01564	0.02482	0.03669	0.05153	0.06887	0.07879
x1 = 0.07662	0.00504	0.00979	0.01722	0.02776	0.04173	0.05942	0.0805	0.09266
x1 = 0.09291	0.005	0.00994	0.01782	0.02925	0.04479	0.06473	0.08902	0.1031
x1 = 0.1099	0.00469	0.00956	0.01751	0.02928	0.04564	0.06699	0.09343	0.109
x1 = 0.1312	0.00408	0.00857	0.01611	0.02768	0.04408	0.06606	0.09376	0.1103
x1 = 0.1458	0.0036	0.00773	0.01481	0.02593	0.0419	0.06371	0.09151	0.1083

CCC[N+](C)(C)C.O=S(=O)([N-]S(=O)(=O)C(F)(F)F)C(F)(F)F + CCC[N+]1(C)CCCC1.O=S(=O)([N-]S(=O)(=O)C(F)(F)F)C(F)(F)F
101.3 kPa
Details	viscosity [mPa·s]
283.15 K, x1 = 0.4	135
283.15 K, x1 = 0.6	148
283.15 K, x1 = 1	179
288.15 K, x1 = 0.6	113
288.15 K, x1 = 1	133
293.15 K, x1 = 0.4	81
303.15 K, x1 = 0.8	59
308.15 K, x1 = 0.2	42.2
308.15 K, x1 = 0.6	46.1
313.15 K, x1 = 0.6	38.2
318.15 K, x1 = 0.8	33.4
323.15 K, x1 = 0.8	28.3
323.15 K, x1 = 1	29.5
328.15 K, x1 = 0.2	22
328.15 K, x1 = 0.4	22.2
328.15 K, x1 = 0.8	24.2
333.15 K, x1 = 0.2	19.1
333.15 K, x1 = 0.4	19.3
333.15 K, x1 = 0.6	20.3
333.15 K, x1 = 1	21.7
343.15 K, x1 = 0.4	14.9
348.15 K, x1 = 0.4	13.3
353.15 K, x1 = 0.2	11.8
353.15 K, x1 = 0.6	12.3

CCC[N+](C)(C)C.O=S(=O)([N-]S(=O)(=O)C(F)(F)F)C(F)(F)F + CCC[N+]1(C)CCCCC1.O=S(=O)([N-]S(=O)(=O)C(F)(F)F)C(F)(F)F
101.3 kPa
Details	viscosity [mPa·s]
283.15 K, x1 = 0.6	248
283.15 K, x1 = 0.8	201
293.15 K, x1 = 0.6	134
293.15 K, x1 = 0.8	113
308.15 K, x1 = 0.4	71
308.15 K, x1 = 0.6	64
313.15 K, x1 = 0.8	45.9
318.15 K, x1 = 0.4	46.4
318.15 K, x1 = 0.6	42.3
343.15 K, x1 = 0.4	20.2
343.15 K, x1 = 0.8	17.5
348.15 K, x1 = 0.8	15.4
348.15 K, x1 = 1	14.6

CC(=O)[O-].CC[n+]1ccn(C)c1 + CCO
Details	electrical conductivity [S/m]	viscosity [mPa·s]
278.15 K, 101 kPa, x2 = 0.201	–	264
278.15 K, 101 kPa, x2 = 0.9	–	3.396
288.15 K, 101 kPa, x2 = 0	–	284
288.15 K, 101 kPa, x2 = 0.1	–	206.6
288.15 K, 101 kPa, x2 = 0.8	–	5.15
293.15 K, 101.3 kPa, x2 = 0	0.243	–
293.15 K, 101.3 kPa, x2 = 0.0733	0.247	–
293.15 K, 101.3 kPa, x2 = 0.1229	0.269	–
293.15 K, 101.3 kPa, x2 = 0.2965	0.433	–
293.15 K, 101.3 kPa, x2 = 0.4286	0.63	–
293.15 K, 101.3 kPa, x2 = 0.5373	0.991	–
293.15 K, 101.3 kPa, x2 = 0.7309	1.447	–
293.15 K, 101.3 kPa, x2 = 0.7625	1.539	–
293.15 K, 101.3 kPa, x2 = 0.7754	1.615	–
293.15 K, 101.3 kPa, x2 = 0.8081	1.329	–
293.15 K, 101.3 kPa, x2 = 0.8897	0.71	–
293.15 K, 101.3 kPa, x2 = 0.9163	0.505	–
293.15 K, 101.3 kPa, x2 = 0.9299	0.404	–
293.15 K, 101.3 kPa, x2 = 0.9383	0.335	–
293.15 K, 101.3 kPa, x2 = 0.9494	0.252	–
298.15 K, 101 kPa, x2 = 0.4002	–	31.8
298.15 K, 101 kPa, x2 = 0.5001	–	20.04
298.15 K, 101 kPa, x2 = 0.8666	–	2.67
308.15 K, 101 kPa, x2 = 0.2999	–	32.06
308.15 K, 101 kPa, x2 = 0.6	–	9.27
308.15 K, 101 kPa, x2 = 0.8	–	3.398
313.15 K, 101 kPa, x2 = 0.1059	–	43.5
313.15 K, 101 kPa, x2 = 0.2471	–	28.5
313.15 K, 101 kPa, x2 = 0.5572	–	9.24
313.15 K, 101 kPa, x2 = 0.7494	–	3.89
318.15 K, 101 kPa, x2 = 0.1	–	39.7
318.15 K, 101 kPa, x2 = 0.201	–	29.99
318.15 K, 101 kPa, x2 = 0.2999	–	22.19
318.15 K, 101 kPa, x2 = 0.4002	–	15.76
318.15 K, 101 kPa, x2 = 0.6	–	7.27
318.15 K, 101 kPa, x2 = 0.9	–	1.591
328.15 K, 101 kPa, x2 = 0	–	30.3
328.15 K, 101 kPa, x2 = 0.7	–	3.833
338.15 K, 101 kPa, x2 = 0	–	21.85
338.15 K, 101 kPa, x2 = 0.8	–	2.049
343.15 K, 101 kPa, x2 = 0.1059	–	14.96
343.15 K, 101 kPa, x2 = 0.3504	–	8.69
343.15 K, 101 kPa, x2 = 0.4165	–	7.31
